# Results published in US12208085B2, “Pyrazoline-derived compound for use in the prevention and/or treatment of pain and inflammation associated to surgery in mammals” (ECUPHAR NV, priority 2022, dated 2025).
# Key:
# Type in all cases: in vivo
# [1] = system: dogs undergoing experimental orthopaedic surgery; test: Postoperative pain after experimental knee surgery (Maquet Modified Procedure), SFGCPS scoring; details: Beagle dogs
# Procedure: The study was performed with 6 clinically healthy Beagle dogs with similar age and weight that were experimentally subjected to knee surgery (repair of cranial cruciate ligament rupture). […] All surgeries were conducted under the same preoperative, intraoperative and postoperative protocols and performed by the same surgeon. A highly standardized surgical technique, Maquet Modified Procedure (MMP) (12) was implemented.
# For each dog the study lasted 17 days, including a 7-day acclimatization period. On day D−1 (approximately 24 h before the intervention) the five dogs in the TG received a single oral dose (8 mg/kg) of the TP, the one dog in the CG received a single subcutaneous dose (0.1 mg/kg) of the RP. […] On day D0 all dogs underwent knee surgery in the right knee. From day D1 up to day D10 dogs were closely examined and signs of pain and discomfort were blindly evaluated and rated using the Short Form of the Glasgow Composite Pain Scale (SFGCPS) ranging from 0 to 24 (13 and http://www.newmetrica.com/cmps/). On day D−1 dogs were also examined to rule out signs of pain or discomfort.
# [2] = system: dogs undergoing soft tissue surgery; test: Pilot field trial, postoperative pain and inflammation after elective soft tissue surgery (SFGCMPS, VAS), Placebo control; parameters: SFGCMPS Mobility average value / SFGCMPS Demeanour average value / SFGCMPS Posture/Activity average value / Total SFGCMPS average value / SFGCMPS Vocalization average value / SFGCMPS Attention to wound average value: scale not given here
# Source text: The study was a single centre, prospective, parallel-controlled, randomized and blinded pilot field trial with a negative (Placebo) control to evaluate the efficacy of E-6087 in dogs undergoing elective soft tissue surgery.
# Twenty dogs (17 females and 3 males) were included in the study. Dogs were of different breeds or crossbreed, ages from 3 months to 7 years and weights from 4 to 34 kg. All dogs were clinically healthy other than the condition causing the animal to go under surgery.
# Two days before surgery animals were weighed, a detailed physical examination was performed, and blood samples were collected for routine haematology and biochemistry to confirm the good health status of the animals before inclusion.
# Dogs were randomly allocated to receive either E-6087 or Placebo as oral tablets. E-6087 and Placebo tablets were similar (same appearance and packaging), therefore treatment administration, clinical examinations and blood sample analysis was always blind.
# E-6087 was administered at the dose of 8 mg/kg on day D−1, approximately 24 h before surgery scheduled time, before the first meal of the day. Placebo tablets were administered following the same posology.
# Surgeries were performed in the morning, on day D0 by the Investigator (Surgeon). All surgeries were performed under the same anaesthesia protocol. Premedication was performed with medetomidine and morphine both at 0.1 ml/10 kg followed by anaesthesia maintained with Tiletamine/Zolazepam (Zoletil®). Local anaesthesia was not permitted. At the end of surgery, antibiotic therapy was administered to all dogs following the post-operative protocol stablished: amoxicillin (trihydrate) at 15 mg of amoxicillin/kg bw in a single dose.
# Clinical assessments of postoperative pain and inflammation were done by the Investigator (Examining Veterinarian) using the SFGCMPS (13). Visual Analog Scales (VAS) were also used to assess pain at rest and under palpation as well as the level of inflammation.
# On D0 at approximately 2 hours before surgery the Examining Veterinarian performed a physical examination and the clinical assessment of pain and inflammation to determine the basal scores. After surgery pain and inflammation were assessed at six examination time points: t1.5 h, t3 h, t5 h (±30 minutes), t8 h (±1 hour), t24 h and t168 (D7), when t0 h corresponded to the end of surgery (extubation).
# Clinical assessment of pain and inflammation included assessments of vocalization, attention to wound area, mobility, reaction to pressure at the wound area, general behaviour as well as activity and posture as per SFGCMPS. In addition, pain at rest and after palpation as well as the level of inflammation were assessed at the same time points by VAS ranging from 0 (no pain) to 100 (severe pain manifested by vocalization, aggression, and refusal to allow examination) and from 0 (no inflammation) to 100 (major inflammation as local heat, redness or paresis of the affected area).
# Statistical Analysis was performed by use of commercially available software (SigmaPlot for Windows version 13.0). The area under the curve (AUC) was calculated for observable pain during the initial 8 and 24 hours, and it was considered as the primary efficacy variable. All analyses applied a two-sided significance level α=0.05 and a power β=80%. Demographic and baseline data were compared using the Mann-Whitney U test. Gender was compared with the Fisher exact probability test in contingency tables. Efficacy variables were analysed by repeated measures ANOVA.
# The foremost surgical procedure was ovariohysterectomy, and this determined that most included animals were females. Sixteen females were ovariohysterectomized. Two males were castrated by cryptorchidectomy. […] All surgeries lasted less than 30 minutes except for one that lasted 54 minutes (perineal hernia).
# [3] = system: dogs undergoing orthopaedic surgery; test: Non-inferiority field study, postoperative pain and inflammation after orthopaedic surgery (SFGCMPS, VAS), meloxicam control
# Source text: The study was a non-inferiority, multicentre, prospective, parallel-controlled, randomized and blinded field study.
# Thirty-two dogs of different breed, age and weight presenting at the veterinary practice for orthopaedic surgery were included.
# Agents with analgesic effect were permitted as premedication. However, intraoperative or postoperative analgesia were not permitted.
# For each dog the study lasted twelve days. Two days before surgery, all animals were weighed and underwent a thorough physical examination with clinical pathology to confirm the good health status of the animals before inclusion. Day 0 (D0) was the day dogs underwent surgery and t0 h corresponded to the end of surgery (extubation). The physical examination was repeated on D0, before surgery (t−2 h) and before dispatch (t8 h) and again at t24 h (D1) and t168 (D7) post-surgery. Clinical assessments of pain and inflammation were blindly performed on D0, before surgery (t−2 h) and again at t1.5 h, t3 h, t5 h, t8 h, t24 h (D1) and t168 h (D7) post-surgery. The global efficacy of treatments was assessed on D7. From day D1 to day D7 post-surgery, the owners assessed the dog's wellbeing.
# The primary endpoint for efficacy comprises the sum of scores for the SFGCMPS scale, which was assessed at different time points by the Investigator.
# From day D1 to D7, owners daily assessed the dogs' wellbeing using scales for: • Demeanour (0=normal; 1=slightly modified; 2=moderately modified; 3=markedly modified and 4=severely modified). • Mobility (0=normal; 1=slightly impaired; 2=moderately impaired; 3=markedly impaired and 4=severely impaired). • Quality of analgesia as very satisfactory (=1); satisfactory (=2); not very satisfactory (=3); not at all satisfactory (=4).
# Blood samples were collected from all animals before inclusion (≤D−2), for routine pre-surgery blood profile. Potential adverse effects related to the products were also recorded.
# Statistical Analysis was performed by use of commercially available software. All analyses used a two-sided significance level α=0.05. […]
# [4] = 8 mg/kg oral D-1, 1.5 h after surgery
# [5] = 8 mg/kg oral D-1, 3 h after surgery
# [6] = 8 mg/kg oral D-1, 5 h after surgery
# [7] = 8 mg/kg oral D-1, 8 h after surgery
# [8] = 8 mg/kg oral D-1, 24 h after surgery
smiles,measurement,setting,value
"NS(=O)(=O)c1ccc(N2N=C(C(F)(F)F)CC2c2ccc(F)cc2F)cc1 (stereo not shown) [E-6087, enflicoxib]",potential adverse effects related to product administration,[1]; single oral dose 8 mg/kg on D-1,No potential adverse effects
same,need of rescue analgesia,"[1]; single oral dose 8 mg/kg on D-1, 10 days follow up",None of the animals needed rescue analgesia
same,analgesic efficacy in the postoperative period after orthopaedic surgery,"[1]; single oral dose 8 mg/kg on D-1, knee surgery D0",effective as analgesic agent
same,SFGCMPS Attention to wound average value,[2]; [4],0
same,SFGCMPS Demeanour average value,[2]; [4],0.83
same,SFGCMPS Mobility average value,[2]; [4],0.33
same,SFGCMPS Posture/Activity average value,[2]; [4],0.17
same,SFGCMPS Pressure on wound average value,[2]; [4],0.33
same,SFGCMPS Vocalization average value,[2]; [4],0.25
same,Total SFGCMPS average value,[2]; [4],1.92
same,SFGCMPS Attention to wound average value,[2]; [5],0.08
same,SFGCMPS Demeanour average value,[2]; [5],0.50
same,SFGCMPS Mobility average value,[2]; [5],0
same,SFGCMPS Posture/Activity average value,[2]; [5],0.08
same,SFGCMPS Pressure on wound average value,[2]; [5],0.42
same,SFGCMPS Vocalization average value,[2]; [5],0.25
same,Total SFGCMPS average value,[2]; [5],1.33
same,"level of inflammation (VAS), compared with Placebo","[2]; 8 mg/kg oral D-1, 3 hours after surgery, p=0.021, Placebo greater",statistically significant differences
same,SFGCMPS Attention to wound average value,[2]; [6],0.08
same,SFGCMPS Demeanour average value,[2]; [6],0.17
same,SFGCMPS Mobility average value,[2]; [6],0
same,SFGCMPS Posture/Activity average value,[2]; [6],0
same,SFGCMPS Pressure on wound average value,[2]; [6],0.50
same,SFGCMPS Vocalization average value,[2]; [6],0
same,Total SFGCMPS average value,[2]; [6],0.75
same,SFGCMPS Attention to wound average value,[2]; [7],0
same,SFGCMPS Demeanour average value,[2]; [7],0
same,SFGCMPS Mobility average value,[2]; [7],0
same,SFGCMPS Posture/Activity average value,[2]; [7],0
same,SFGCMPS Pressure on wound average value,[2]; [7],0.67
same,SFGCMPS Vocalization average value,[2]; [7],0
same,Total SFGCMPS average value,[2]; [7],0.50
same,SFGCMPS Attention to wound average value,[2]; [8],0
same,SFGCMPS Demeanour average value,[2]; [8],0
same,SFGCMPS Mobility average value,[2]; [8],0
same,SFGCMPS Posture/Activity average value,[2]; [8],0
same,SFGCMPS Pressure on wound average value,[2]; [8],0.50
same,SFGCMPS Vocalization average value,[2]; [8],0
same,Total SFGCMPS average value,[2]; [8],0.50
same,"AUC (primary efficacy variable) for the first 24 hours after surgery, compared with Placebo","[2]; 8 mg/kg oral D-1, difference not statistically significant (p=0.266)",almost half
same,SFGCMPS AUC0→8 h,"[2]; 8 mg/kg oral D-1, first 8 hours after surgery",8.0 ± 5.0
same,SFGCMPS AUC0→24 h,"[2]; 8 mg/kg oral D-1, first 24 hours after surgery",16.0 ± 15
same,"AUC for the first 8 hours, compared with Placebo","[2]; 8 mg/kg oral D-1, p=0.033",statistically significant lower values
same,"Total scores for SFGCMPS at each time point, compared with Placebo","[2]; 8 mg/kg oral D-1, significant only at 1.5, 3 and 5 hours",always lower
same,adverse events,"[2]; 8 mg/kg oral D-1, whole study",No adverse events were observed
same,alleviation of pain and inflammation after soft tissue surgery (conclusion),[2]; single dose of 8 mg/kg,effective in alleviating pain and inflammation
same,"level of inflammation (VAS), compared with meloxicam","[3]; 8 mg/kg oral D-1, 3 h after surgery, p=0.025",lower values
same,"assessment of global efficacy, compared with meloxicam","[3]; 8 mg/kg oral D-1, D7, p=0.7879",No differences were detected
same,"SFGCMPS (AUC), primary efficacy variable, average value","[3]; initial 24 hours after orthopaedic surgery, E-6087 8 mg/kg oral D-1, meloxicam 0.2 mg/kg D0 then 0.1 mg/kg daily to D7",95.50±57.70
